This assay concerns the target His6 USP28 (Homo sapiens (Human), UniProt Q96RU2). The experiment in a line: Ubiquitin-Rhodamine 110 assay to determine USP28 IC50. Particulars: USP28 150 pM, Ub-Rho110 41 nM, 2 h pre-incubation with enzyme, fluorescence read. The assay is classed as biochemical. As for the experimental part:
Example 21. Ubiquitin-Rhodamine 110 Assay to Determine USP28 IC50
Each assay was performed in a final volume of 8 μl in assay buffer containing 10 mM HEPES pH 7.3 ((1 M, pH 7.3 solution, (VWR J848), 100 mM NaCl (5 M, Corning 46-032-CV), 0.01% Triton X-100 (Sigma #T8787), 3.5 mM DTT (1 M, Sigma #43819) and 0.00375% BSA (10%, Calbiochem, #126609)). The assay buffer pH was adjusted to 7.5 using 1 N NaOH (JT Baker, #5000-03). Stock compounds were stored at −80° C. as a 25 mM in DMSO solution along with their respective 20 point 2 fold serial dilutions. For the dose responses, stock compound plates were allowed to come to room temperature the day of the assay. […] of the serial dilution series were pre stamped into assay plates (Black, high base, medium binding, Greiner #782076) for a final top screening concentration of 125 μM (DMSO final concentration=0.5%). Enzyme (His6 USP28, BostonBiochem, #E-570) concentration and incubation times were optimized for the maximal signal to background while maintaining the initial velocity conditions at a fixed substrate concentration. The final concentration of the enzyme in the assay was 150 pM. Final substrate (Ub-Rhol10, Ubiquitin-Rhodamine 110, UBPBio, #M3020) concentration was 41 nM. 2 μl of 4× enzyme was added to assay plates (pre stamped with compound) and incubated for 2 h at room temperature. […] was subsequently added to the assay plates and incubated for 2 h at room temperature. Fluorescence was then read on the Envision (Excitation 485 nm and Emission at 535 nm, Perkin Elmer).
Chain of His6 USP28 (Q96RU2 whole entry): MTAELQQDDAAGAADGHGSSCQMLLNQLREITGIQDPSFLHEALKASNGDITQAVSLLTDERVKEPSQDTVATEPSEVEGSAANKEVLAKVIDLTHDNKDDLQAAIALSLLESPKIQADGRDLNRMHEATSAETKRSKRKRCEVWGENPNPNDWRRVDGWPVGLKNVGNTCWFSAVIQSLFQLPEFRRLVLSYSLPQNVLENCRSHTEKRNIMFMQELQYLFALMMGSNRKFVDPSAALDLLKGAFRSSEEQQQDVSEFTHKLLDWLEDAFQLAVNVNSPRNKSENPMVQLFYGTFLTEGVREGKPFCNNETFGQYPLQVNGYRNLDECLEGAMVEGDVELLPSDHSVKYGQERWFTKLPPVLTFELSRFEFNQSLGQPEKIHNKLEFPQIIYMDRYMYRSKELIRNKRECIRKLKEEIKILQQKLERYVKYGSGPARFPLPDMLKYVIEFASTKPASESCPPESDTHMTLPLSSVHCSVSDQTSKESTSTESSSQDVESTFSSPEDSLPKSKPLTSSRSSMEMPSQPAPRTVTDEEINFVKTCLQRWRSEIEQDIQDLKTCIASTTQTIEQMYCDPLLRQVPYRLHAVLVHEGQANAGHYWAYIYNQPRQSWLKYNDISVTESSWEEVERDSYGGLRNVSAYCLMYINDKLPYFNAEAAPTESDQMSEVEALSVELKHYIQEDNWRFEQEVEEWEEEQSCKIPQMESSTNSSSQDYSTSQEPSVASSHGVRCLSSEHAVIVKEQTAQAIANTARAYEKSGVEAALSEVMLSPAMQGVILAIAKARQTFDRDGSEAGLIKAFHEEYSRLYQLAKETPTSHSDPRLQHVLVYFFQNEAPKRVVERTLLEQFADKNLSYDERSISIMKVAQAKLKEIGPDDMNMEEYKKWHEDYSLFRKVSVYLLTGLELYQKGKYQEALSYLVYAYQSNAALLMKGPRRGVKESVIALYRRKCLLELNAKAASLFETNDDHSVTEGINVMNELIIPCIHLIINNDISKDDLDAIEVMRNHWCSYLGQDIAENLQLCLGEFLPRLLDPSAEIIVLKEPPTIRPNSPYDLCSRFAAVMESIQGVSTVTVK
One may read the IC50 as the point on the concentration scale where inhibition reaches its midpoint. Read a high IC50 as weaker potency. In turn, `N#CN1C[C@H](NC(=O)COc2ccc(-c3nc(Cc4ccccc4)no3)cc2)C[C@H]1CF` [Compound 1, 2-[4-(3-Benzyl-1,2,4-oxadiazol-5-yl)phenoxy]-N-[(3R,5S)-1-cyano-5-(fluoromethyl)pyrrolidin-3-yl]acetamide] yielded an IC50 greater than 1000 nM.

Take `C[C@@H]1C[C@@H](NC(=O)COc2ccc(-c3nc(Cc4ccccc4)no3)cc2)CN1C#N` [Compound 2, 2-[4-(3-Benzyl-1,2,4-oxadiazol-5-yl)phenoxy]-N-[(3R,5R)-1-cyano-5-methylpyrrolidin-3-yl]acetamide]: the IC50 was greater than 1000 nM.

`C[C@@H]1C[C@@H](NC(=O)COc2ccc(-c3nc(Cc4cccc(Cl)c4)no3)cc2)CN1C#N` [Compound 3, 2-(4-(3-(3-Chlorobenzyl)-1,2,4-oxadiazol-5-yl)phenoxy)-N-((3R,5R)-1-cyano-5-methylpyrrolidin-3-yl)acetamide] displayed an IC50 of 50 to 500 nM.

Take `C[C@@H]1C[C@@H](NC(=O)COc2ccc(-c3nc(Cc4ccc(Cl)cc4)no3)cc2)CN1C#N` [Compound 4, 2-(4-{3-[(4-Chlorophenyl)methyl]-1,2,4-oxadiazol-5-yl}phenoxy)-N-[(3R,5R)-1-cyano-5-methylpyrrolidin-3-yl]acetamide]: the IC50 lay within 50 to 500 nM.

Regarding `C[C@@H]1C[C@@H](NC(=O)/C=C/c2ccc(-c3nc(Cc4cccc(Cl)c4)no3)cc2)CN1C#N` [Compound 5, (E)-3-(4-(3-(3-Chlorobenzyl)-1,2,4-oxadiazol-5-yl)phenyl)-N-((3R,5R)-1-cyano-5-methylpyrrolidin-3-yl)acrylamide], the IC50 was in the range of 50 to 500 nM.

`C[C@@H]1C[C@@H](NC(=O)COc2ccc(-c3nc(Cc4cccc(C(F)(F)F)c4)no3)cc2)CN1C#N` [Compound 6, N-[(3R,5R)-1-Cyano-5-methylpyrrolidin-3-y1]-2-[4-(3-{[3-(trifluoromethyl)phenyl]methyl}-1,2,4-oxadiazol-5-y1)phenoxy]acetamide] registered an IC50 of 50 to 500 nM.

`COc1cccc(Cc2noc(-c3ccc(OCC(=O)N[C@@H]4C[C@@H](C)N(C#N)C4)cc3)n2)c1` [Compound 7, N-[(3R,5R)-1-Cyano-5-methylpyrrolidin-3-yl]-2-(4-{3-[(3-methoxyphenyl)methyl]-1,2,4-oxadiazol-5-yl}phenoxy)acetamide] returned an IC50 greater than 1000 nM.

In turn, `C[C@@H]1C[C@@H](NC(=O)COc2ccc(-c3nc(Cc4cccc(C#N)c4)no3)cc2)CN1C#N` [Compound 8, N-((3R,5R)-1-Cyano-5-methylpyrrolidin-3-yl)-2-(4-(3-(3-cyanobenzyl)-1,2,4-oxadiazol-5-yl)phenoxy)acetamide] yielded an IC50 of 500 to 1000 nM.

Take `Cc1cccc(Cc2noc(-c3ccc(OCC(=O)N[C@@H]4C[C@@H](C)N(C#N)C4)cc3)n2)c1` [Compound 9, N-[(3R,5R)-1-Cyano-5-methylpyrrolidin-3-yl]-2-(4-{3-[(3-methylphenyl)methyl]-1,2,4-oxadiazol-5-yl}phenoxy)acetamide]: the IC50 was in the range of 50 to 500 nM.

On to `C[C@@H]1C[C@@H](NC(=O)NCc2ccc(-c3nc(Cc4cccc(Cl)c4)no3)cc2)CN1C#N` [Compound 10, 1-(4-(3-(3-Chlorobenzyl)-1,2,4-oxadiazol-5-yl)benzyl)-3-((3R,5R)-1-cyano-5-methylpyrrolidin-3-yl)urea], for which the IC50 fell in the range of 50 to 500 nM.

In turn, `C[C@@H]1C[C@@H](NC(=O)COc2ccc(-c3nc(Cc4cccc(Cl)c4)no3)nc2)CN1C#N` [Compound 12, 2-[(6-{3-[(3-Chlorophenyl)methyl]-1,2,4-oxadiazol-5-yl}pyridin-3-yl)oxy]-N-[(3R,5R)-1-cyano-5-methylpyrrolidin-3-yl]acetamide] registered an IC50 greater than 1000 nM.

The compound `C/C(=C\c1ccc(-c2nc(Cc3cccc(Cl)c3)no2)cc1)C(=O)N[C@@H]1C[C@@H](C)N(C#N)C1` [Compound 13, (E)-3-(4-(3-(3-chlorobenzyl)-1,2,4-oxadiazol-5-yl)phenyl)-N-((3R,5R)-1-cyano-5-methylpyrrolidin-3-yl)-2-methylacrylamide] had an IC50 of 500 to 1000 nM.

`Cc1oc(Cc2cccc(Cl)c2)nc1-c1ccc(/C=C/C(=O)N[C@@H]2C[C@@H](C)N(C#N)C2)cc1` [Compound 14, (E)-3-(4-(2-(3-Chlorobenzyl)-5-methyloxazol-4-yl)phenyl)-N-((3R,5R)-1-cyano-5-methylpyrrolidin-3-yl)acrylamide] registered an IC50 of 50 to 500 nM.

Turning to `Cc1oc(Cc2cccc(Cl)c2)nc1-c1ccc(/C=C/C(=O)N[C@H]2CN[C@H](C)C2)cc1` [Compound 15, (E)-3-(4-(2-(3-Chlorobenzyl)-5-methyloxazol-4-yl)phenyl)-N-((3R,5R)-5-methylpyrrolidin-3-yl)acrylamide], the IC50 is 50 to 500 nM.

`C[C@@H]1C[C@@H](NC(=O)Cc2ccc(-c3nc(Cc4cccc(Cl)c4)no3)cc2)CN1C#N` [Compound 16, 2-(4-{3-[(3-Chlorophenyl)methyl]-1,2,4-oxadiazol-5-yl}phenyl)-N-[(3R,5R)-1-cyano-5-methylpyrrolidin-3-yl]acetamide] had an IC50 greater than 1000 nM.

In the case of `C[C@@H]1C[C@@H](NC(=O)/C=C/c2cccc(-c3nc(Cc4cccc(Cl)c4)no3)c2)CN1C#N` [Compound 17, (2E)-3-(3-{3-[(3-Chlorophenyl)methyl]-1,2,4-oxadiazol-5-yl}phenyl)-N-[(3R,5R)-1-cyano-5-methylpyrrolidin-3-yl]prop-2-enamide], the IC50 is greater than 1000 nM.

With `CN(C)C(=O)c1ccc(OCc2ccc(-c3nc(Cc4cccc(Cl)c4)no3)cc2)cc1` [Compound 18, 4-((4-(3-(3-Chlorobenzyl)-1,2,4-oxadiazol-5-yl)benzyl)oxy)-N,N-dimethylbenzamide], the IC50 is 50 to 500 nM.

Consider `Cc1ccc(C(=O)NCc2ccc(-c3nc(Cc4cccc(Cl)c4)no3)cc2)cn1` [Compound 19, N-[(4-{3-[(3-Chlorophenyl)methyl]-1,2,4-oxadiazol-5-yl}phenyl)methyl]-6-methylpyridine-3-carboxamide], for which the IC50 was in the range of 500 to 1000 nM.

For the compound `Cc1oc(Cc2cccc(Cl)c2)nc1-c1ccc(COc2ccc(C(=O)N(C)C)cc2)cc1` [Compound 21, 4-((4-(2-(3-Chlorobenzyl)-5-methyloxazol-4-yl)benzyl)oxy)-N,N-dimethylbenzamide], the IC50 is less than 50 nM.

Regarding `Cc1oc(Cc2cccc(Cl)c2)nc1-c1ccc(OCc2ccc(C(=O)N(C)C)cc2)cc1` [Compound 22, 4-((4-(2-(3-Chlorobenzyl)-5-methyloxazol-4-yl)phenoxy)methyl)-N,N-dimethylbenzamide], the IC50 was less than 50 nM.

`Cc1oc(Cc2cccc(Cl)c2)nc1-c1ccc(OCc2cc(C(=O)N(C)C)n(C)n2)cc1` [Compound 23, 3-((4-(2-(3-Chlorobenzyl)-5-methyloxazol-4-yl)phenoxy)methyl)-N,N,1-trimethyl-1H-pyrazole-5-carboxamide] showed an IC50 of 50 to 500 nM.

As to `Cc1oc(Cc2cccc(Cl)c2)nc1-c1ccc(OCc2ccc(C(=O)N(C)C)cn2)cc1` [Compound 24, 6-[(4-{2-[(3-Chlorophenyl)methyl]-5-methyl-1,3-oxazol-4-yl}phenoxy)methyl]-N,N-dimethylpyridine-3-carboxamide], the IC50 was less than 50 nM.

For the compound `Cc1oc(Cc2cccc(Cl)c2)nc1-c1ccc(OCc2ccc(C(=O)N(C)C)nn2)cc1` [Compound 25, 6-[(4-{2-[(3-Chlorophenyl)methyl]-5-methyl-1,3-oxazol-4-yl}phenoxy)methyl]-N,N-dimethylpyridazine-3-carboxamide], the IC50 is less than 50 nM.

As to `Cc1oc(Cc2cccc(Cl)c2)nc1-c1ccc(OCc2ncc(C(=O)N(C)C)cn2)cc1` [Compound 26, 2-[(4-{2-[(3-Chlorophenyl)methyl]-5-methyl-1,3-oxazol-4-yl}phenoxy)methyl]-N,N-dimethylpyrimidine-5-carboxamide], the IC50 is less than 50 nM.

In turn, `Cc1oc(Cc2cccc(Cl)c2)nc1-c1ccc(OCc2cnc(C(=O)N(C)C)cn2)cc1` [Compound 28, 5-[(4-{2-[(3-Chlorophenyl)methyl]-5-methyl-1,3-oxazol-4-yl}phenoxy)methyl]-N,N-dimethylpyrazine-2-carboxamide] gave an IC50 of less than 50 nM.

`Cc1oc(Cc2cccc(Cl)c2)nc1-c1ccc(OCc2ccc(C(=O)N3CC4CCC(C3)N4)cn2)cc1` [Compound 29, (3,8-Diazabicyclo[3.2.1]octan-3-yl)(6-((4-(2-(3-chlorobenzyl)-5-methyloxazol-4-yl)phenoxy)methyl)pyridin-3-yl)methanone]: the IC50 is less than 50 nM.

As for `Cc1oc(Cc2cnn(C)c2)nc1-c1ccc(OCc2ccc(C(=O)N(C)C)cn2)cc1` [Compound 30], the IC50 was in the range of 50 to 500 nM.

The compound `Cc1oc(Cc2ccnc(Cl)c2)nc1-c1ccc(OCc2ccc(C(=O)N(C)C)cn2)cc1` [Compound 31, 6-[(4-{2-[(2-Chloropyridin-4-yl)methyl]-5-methyl-1,3-oxazol-4-yl}phenoxy)methyl]-N,N-dimethylpyridine-3-carboxamide] gave an IC50 of 50 to 500 nM.

The compound `Cc1oc(Cc2cccc(Cl)c2)nc1-c1ccc(OCc2ccc(C(=O)N3CCC[C@@H](C(=O)O)C3)cn2)cc1` [Compound 32, (3R)-1-{6-[(4-{2-[(3-Chlorophenyl)methyl]-5-methyl-1,3-oxazol-4-yl}phenoxy)methyl]pyridine-3-carbonyl}piperidine-3-carboxylic acid] returned an IC50 of less than 50 nM.

These data come from patent US20240425513A1, “OXAZOLE, OXADIAZOLE, AND INDOLE DERIVATIVES FOR THE INHIBITION OF USP28” (Carmot Therapeutics, Inc., priority 2021, published 2024).
